Results from patent US12077503B2, “Substituted cyclic amides and their use as herbicides” (FMC CORPORATION, priority 2015, dated 2024).

Experiments:
Type in all cases: in vivo
Kochia (Kochia scoparia) [1] = assay: Test A preemergence; details: Bassia scoparia, pre-emergence, 240 h, Preemergence; for pest or weed control at 31 g/ha: 31 g ai/ha, 0 to 100 scale where 0 is no effect and 100 is complete control, read-out: Kochia plant response rating; for pest or weed control at 125 g/ha: 125 g ai/ha, 0 to 100 scale (0 no effect, 100 complete control), read-out: Plant response rating, Kochia
In short: (§1)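 Preemergence soil spray on seeded pots or post-emergence spray on 1–2 leaf plants, in loam–sand blend. Greenhouse ~10 d. Visual rating 0–100 against untreated plants.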

[2] = system: barnyardgrass (Echinochloa crus-galli); assay: Test A preemergence; details: Echinochloa crus-galli, pre-emergence, 240 h, Preemergence; for pest or weed control at 31 g/ha: 31 g ai/ha, 0 to 100 scale where 0 is no effect and 100 is complete control, read-out: Barnyardgrass plant response rating; for pest or weed control at 125 g/ha: 125 g ai/ha, 0 to 100 scale (0 no effect, 100 complete control), read-out: Plant response rating, Barnyardgrass
In short: as §1

[3] = system: giant foxtail (Setaria faberii); assay: Test A preemergence; details: Setaria faberi, pre-emergence, 240 h, Preemergence; for pest or weed control at 31 g/ha: 31 g ai/ha, 0 to 100 scale where 0 is no effect and 100 is complete control, read-out: Foxtail, Giant plant response rating; for pest or weed control at 125 g/ha: 125 g ai/ha, 0 to 100 scale (0 no effect, 100 complete control), read-out: Plant response rating, Foxtail, Giant
In short: as §1

[4] = system: pigweed (Amaranthus retroflexus); assay: Test A preemergence; details: Amaranthus retroflexus, pre-emergence, 240 h, Preemergence; for pest or weed control at 31 g/ha: 31 g ai/ha, 0 to 100 scale where 0 is no effect and 100 is complete control, read-out: Pigweed plant response rating; for pest or weed control at 125 g/ha: 125 g ai/ha, 0 to 100 scale (0 no effect, 100 complete control), read-out: Plant response rating, Pigweed
[5] = system: ragweed (common ragweed, Ambrosia elatior); assay: Test A preemergence; details: Ambrosia artemisiifolia, pre-emergence, 240 h, Preemergence; for pest or weed control at 31 g/ha: 31 g ai/ha, 0 to 100 scale where 0 is no effect and 100 is complete control, read-out: Ragweed plant response rating; for pest or weed control at 125 g/ha: 125 g ai/ha, 0 to 100 scale (0 no effect, 100 complete control), read-out: Plant response rating, Ragweed
In short: as §1

[6] = system: ryegrass, Italian (Italian ryegrass, Lolium multiflorum); assay: Test A preemergence; details: Lolium multiflorum, pre-emergence, 240 h, Preemergence; for pest or weed control at 31 g/ha: 31 g ai/ha, 0 to 100 scale where 0 is no effect and 100 is complete control, read-out: Ryegrass, Italian plant response rating; for pest or weed control at 125 g/ha: 125 g ai/ha, 0 to 100 scale (0 no effect, 100 complete control), read-out: Plant response rating, Ryegrass, Italian
In short: as §1

Kochia (Kochia scoparia) [7] = assay: Test A postemergence; details: Bassia scoparia, post-emergence, 240 h, Postemergence, read-out: Kochia plant response rating (0 to 100 scale); for pest or weed control at 125 g/ha: 125 g ai/ha, visual rating about 10 d after treatment; for pest or weed control at 31 g/ha: 31 g ai/ha, 0 is no effect, 100 is complete control
In short: as §1

[8] = system: barnyardgrass (Echinochloa crus-galli); assay: Test A postemergence; details: Echinochloa crus-galli, post-emergence, 240 h, Postemergence; for pest or weed control at 125 g/ha: 125 g ai/ha, visual rating about 10 d after treatment, read-out: Barnyardgrass plant response rating (0 to 100 scale, 0 no effect, 100 complete control); for pest or weed control at 31 g/ha: 31 g ai/ha, 0 is no effect, 100 is complete control, read-out: Barnyardgrass plant response rating (0 to 100 scale)
In short: as §1

[9] = system: blackgrass (Alopecurus myosuroides); assay: Test A postemergence; details: Alopecurus myosuroides, post-emergence, 240 h, Postemergence, read-out: Blackgrass plant response rating (0 to 100 scale); for pest or weed control at 125 g/ha: 125 g ai/ha, visual rating about 10 d after treatment; for pest or weed control at 31 g/ha: 31 g ai/ha, 0 is no effect, 100 is complete control
In short: as §1

corn (Zea mays) = assay: Test A postemergence; details: Zea mays, post-emergence, 240 h, Postemergence, read-out: Corn plant response rating (0 to 100 scale); for plant injury at 125 g/ha: 125 g ai/ha, visual rating about 10 d after treatment; for plant injury at 31 g/ha: 31 g ai/ha, 0 is no effect, 100 is complete control
In short: as §1

[10] = system: giant foxtail (Setaria faberii); assay: Test A postemergence; details: Setaria faberi, post-emergence, 240 h, Postemergence, read-out: Foxtail, Giant plant response rating (0 to 100 scale); for pest or weed control at 125 g/ha: 125 g ai/ha, visual rating about 10 d after treatment; for pest or weed control at 31 g/ha: 31 g ai/ha, 0 is no effect, 100 is complete control
In short: as §1

[11] = system: pigweed (Amaranthus retroflexus); assay: Test A postemergence; details: Amaranthus retroflexus, post-emergence, 240 h, Postemergence, read-out: Pigweed plant response rating (0 to 100 scale); for pest or weed control at 125 g/ha: 125 g ai/ha, visual rating about 10 d after treatment; for pest or weed control at 31 g/ha: 31 g ai/ha, 0 is no effect, 100 is complete control
In short: as §1

[12] = system: ragweed (common ragweed, Ambrosia elatior); assay: Test A postemergence; details: Ambrosia artemisiifolia, post-emergence, 240 h, Postemergence, read-out: Ragweed plant response rating (0 to 100 scale); for pest or weed control at 125 g/ha: 125 g ai/ha, visual rating about 10 d after treatment; for pest or weed control at 31 g/ha: 31 g ai/ha, 0 is no effect, 100 is complete control
In short: as §1

[13] = system: ryegrass, Italian (Italian ryegrass, Lolium multiflorum); assay: Test A postemergence; details: Lolium multiflorum, post-emergence, 240 h, Postemergence, read-out: Ryegrass, Italian plant response rating (0 to 100 scale); for pest or weed control at 125 g/ha: 125 g ai/ha, visual rating about 10 d after treatment; for pest or weed control at 31 g/ha: 31 g ai/ha, 0 is no effect, 100 is complete control
In short: as §1

[14] = system: wheat (Triticum aestivum); assay: Test A postemergence; details: Triticum aestivum, post-emergence, 240 h, Postemergence, read-out: Wheat plant response rating (0 to 100 scale); for plant injury at 125 g/ha: 125 g ai/ha, visual rating about 10 d after treatment; for plant injury at 31 g/ha: 31 g ai/ha, 0 is no effect, 100 is complete control
In short: as §1

[15] = system: barnyardgrass (Echinochloa crus-galli); assay: Test B flooded paddy test; details: Echinochloa crus-galli, 360 h, Flood, 250 g ai/ha; visually evaluated after 13 to 15 d; read-out: Plant response rating, Barnyardgrass (0 to 100 scale where 0 is no effect and 100 is complete control)
In short: (§2)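 Rating scale 0–100 (visual, vs untreated controls) after a 13–15 d greenhouse period; application to the flood layer, 3 cm above soil and maintained; plants at 2-leaf stage when treated.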

[16] = system: ducksalad (Heteranthera limosa); assay: Test B flooded paddy test; details: Heteranthera limosa, 360 h, Flood, 250 g ai/ha; visually evaluated after 13 to 15 d; read-out: Plant response rating, Ducksalad (0 to 100 scale where 0 is no effect and 100 is complete control)
In short: as §2

rice (Oryra sativa) = assay: Test B flooded paddy test; details: Oryza sativa, 360 h, Flood, 250 g ai/ha; visually evaluated after 13 to 15 d; read-out: Plant response rating, Rice (0 to 100 scale where 0 is no effect and 100 is complete control)
In short: as §2

[17] = system: sedge, umbrella (small-flower umbrella sedge, Cyperus difformis); assay: Test B flooded paddy test; details: Cyperus difformis, 360 h, Flood, 250 g ai/ha; visually evaluated after 13 to 15 d; read-out: Plant response rating, Sedge, Umbrella (0 to 100 scale where 0 is no effect and 100 is complete control)
In short: as §2

Structure (SMILES) | pest or weed control at 31 g/ha (Kochia (Kochia scoparia) [1]) [%] | pest or weed control at 125 g/ha (Kochia (Kochia scoparia) [1]) [%] | pest or weed control at 31 g/ha [2] [%] | pest or weed control at 125 g/ha [2] [%] | pest or weed control at 31 g/ha [3] [%] | pest or weed control at 125 g/ha [3] [%] | pest or weed control at 31 g/ha [4] [%] | pest or weed control at 125 g/ha [4] [%] | pest or weed control at 31 g/ha [5] [%] | pest or weed control at 125 g/ha [5] [%] | pest or weed control at 31 g/ha [6] [%] | pest or weed control at 125 g/ha [6] [%] | pest or weed control at 125 g/ha (Kochia (Kochia scoparia) [7]) [%] | pest or weed control at 31 g/ha (Kochia (Kochia scoparia) [7]) [%] | pest or weed control at 125 g/ha [8] [%] | pest or weed control at 31 g/ha [8] [%] | pest or weed control at 125 g/ha [9] [%] | pest or weed control at 31 g/ha [9] [%] | plant injury at 125 g/ha (corn (Zea mays)) [%] | plant injury at 31 g/ha (corn (Zea mays)) [%] | also measured
COc1ccc([C@H]2CN(C)C(=O)[C@@H]2C(=O)Nc2ccccc2F)cc1 [Compound 1342] | 0 | 0 | 60 | 90 | 90 | 100 | 0 | 20 | 0 | 0 | 0 | 0 | 20 | 0 | 90 | 20 | 0 | 0 | 0 | 0 | pest or weed control at 125 g/ha [10]: 70%; pest or weed control at 31 g/ha [10]: 20%; pest or weed control at 125 g/ha [11]: 0%; pest or weed control at 31 g/ha [11]: 0%; pest or weed control at 125 g/ha [12]: 0%; pest or weed control at 31 g/ha [12]: 0%; pest or weed control at 125 g/ha [13]: 0%; pest or weed control at 31 g/ha [13]: 0%; plant injury at 125 g/ha [14]: 0%; plant injury at 31 g/ha [14]: 0%; pest or weed control at 250 g/ha [15]: 50%; pest or weed control at 250 g/ha [16]: 85%; pest or weed control at 250 g/ha (rice (Oryra sativa)): 0%; pest or weed control at 250 g/ha [17]: 0%
CN1C[C@H](c2ccc3c(c2)OC(F)(F)O3)[C@@H](C(=O)Nc2cccnc2F)C1=O [Compound 1346] | 10 | 80 | 40 | 90 | 90 | 100 | 80 | 90 | 0 | 90 | 10 | 30 | 30 | 0 | 80 | 60 | 20 | 30 | 40 | 0 | pest or weed control at 125 g/ha [10]: 90%; pest or weed control at 31 g/ha [10]: 60%; pest or weed control at 125 g/ha [11]: 20%; pest or weed control at 31 g/ha [11]: 0%; pest or weed control at 125 g/ha [12]: 0%; pest or weed control at 31 g/ha [12]: 0%; pest or weed control at 125 g/ha [13]: 20%; pest or weed control at 31 g/ha [13]: 0%; plant injury at 125 g/ha [14]: 60%; plant injury at 31 g/ha [14]: 30%; pest or weed control at 250 g/ha [15]: 90%; pest or weed control at 250 g/ha [16]: 90%; pest or weed control at 250 g/ha (rice (Oryra sativa)): 0%; pest or weed control at 250 g/ha [17]: 0%
CN1C[C@H](c2ccc3c(c2)OC(F)(F)O3)[C@@H](C(=O)Nc2ccccc2C(F)(F)F)C1=O [Compound 1352] | 20 | 60 | 80 | 90 | 100 | 100 | 0 | 80 | 0 | 30 | 0 | 40 | 0 | 0 | 60 | 60 | 30 | 0 | 0 | 0 | pest or weed control at 125 g/ha [10]: 80%; pest or weed control at 31 g/ha [10]: 60%; pest or weed control at 125 g/ha [11]: 0%; pest or weed control at 31 g/ha [11]: 0%; pest or weed control at 125 g/ha [12]: 0%; pest or weed control at 31 g/ha [12]: 0%; pest or weed control at 125 g/ha [13]: 0%; pest or weed control at 31 g/ha [13]: 0%; plant injury at 125 g/ha [14]: 20%; plant injury at 31 g/ha [14]: 0%; pest or weed control at 250 g/ha [15]: 60%; pest or weed control at 250 g/ha [16]: 70%; pest or weed control at 250 g/ha (rice (Oryra sativa)): 0%; pest or weed control at 250 g/ha [17]: 0%
